The target in one experiment is T1, Human PI3K alpha (Homo sapiens, UniProt P42336).
T1 construct: His (N); host or cells: SF9 insect cells (baculovirus)
Nature of the experiment: Human PI3K alpha enzyme assay (HTRF). Type of experiment: biochemical. As to conditions: for pIC50: read-out: PI3Kalpha IC50. An excerpt:
(§1) The catalytic subunits of PI3Ks are cloned into either pDEST8(p110 alpha) or pDEST10(p110beta, p110delta, and p110gamma) as N-terminal His tagged fusion proteins using the Gateway system (Invitrogen, catalog#11804-010 for pDEST8 and 11806-015 for pDEST10). The sequences are verified before recombinant protein expression using the Baculovirus Expression System with Gateway® Technology. The accession numbers for the subunits are as follows: • p110 alpha (GB:U79143) • p110beta (GB: S67334) • p110delta (GB: U86453) • p110gamma (GB: X83368) • The regulatory subunits of PI3Ks are cloned into pDEST8 as un-tagged protein using the Gateway system (Catalog#11804-010). The sequences are verified before recombinant protein expression using the Baculovirus Expression System with Gateway® Technology. The accession numbers for the subunits are as following: • p85 alpha (GB: BC030815) • p101(GB: AB028925) • VPS34 (accession number GB:BC033004) is cloned into pDEST20—Thombin as N-terminal GST tagged fusion proteins using the Gateway system (Invitrogen, catalog#11804-013). The sequences are verified before recombinant protein expression using the Baculovirus Expression System with Gateway® Technology.
(§2) For expression of the p110 complexes, the p85 (MOI of 4) is co-infected with p110 alpha, beta, and delta respectively (1MOI) in SF9 cells and harvested at 60 hours post co-infection. P110 gamma was infected at 1 MOI and harvested at 60 hours post infection.
(§3) For purification, PI3Ks are purified by Ni-NTA Agarose (Qiagen #30250) followed by Mono Q 10/100 GL (Ge Healthcare #17-5167-01). VPS34 is purified by Glutathione Sepharose 4 Fast Flow (GE Healthcare #17-5132-03) followed by HiTrap Q (GE Healthcare #17-1153-01).
1) Human PI3K alpha enzyme assay method
(§4) 0.5 uL compounds in DMSO are added to wells of a 384 well microtitre plate (Corning 3575). At room temperature: 10 ul PI3K reaction buffer (50 mM Hepes, 5 mM DTT, 150 mM NaCl, 10 mM beta-glycerophosphate, 10 mM MgCl2, 0.25 mM sodium cholate and 0.001% CHAPS, pH 7.00) containing ATP (25 uM, Promega) is added followed immediately by 10 ul PI3K reaction buffer containing di-C8 P1(4,5)P2 (3.5 uM, CellSignals) and PI3Kalpha (0.4875 nM, Millennium Protein Sciences Group) and the mixture is incubated with shaking at room temperature for 30 minutes. Then 5 ul PI3K stop mix (50 mM Hepes, 5 mM DTT, 150 mM NaCl, 0.01% Tween-20, 15 mM EDTA and 25 nM biotin-PI(3,4,5)P3 (Echelon) is added to quench the reaction followed immediately by addition of 5 ul HTRF detection mix (50 mM Hepes, 5 mM DTT, 150 mM NaCl, 0.01% Tween-20, 40 mM KF, 1.0 nM GST:GRP-1 PH domain (Millennium Protein Sciences Group), 15 nM Streptavidin-XL (CisBio) and 0.375 nM anti-GST Eu++ antibody (CisBio) at pH 7.00). The plates are then incubated for 1 hour at room temperature with shaking and then read on a BMG PheraStar Plus reader.
(§5) For the assay methods described above, test compound percent inhibition, at various concentrations, is calculated relative to control (DMSO and EDTA) treated samples. Compound concentration versus percent inhibition curves are fitted to generate IC50 values. One skilled in the art will appreciate that the values generated either as percentage inhibition at a single concentration or IC50 values are subject to experimental variation.
On the technique in general: TR-FRET usually uses a lanthanide donor and a delayed reading to cut background.

Another experiment addresses T2, Human PI3K beta (Homo sapiens, UniProt P42338).
T2 construct: His (N); host or cells: SF9 insect cells (baculovirus)
Nature of the experiment: Human PI3K beta enzyme assay (HTRF). In kind it is biochemical. As to conditions: for pIC50: read-out: PI3 Kbeta IC50.
Description: as §1, §2, §3, §4
2) Human PI3K beta, delta and gamma isoforms are tested using the procedure described for PI3K alpha above but with the following changes: PI3K beta (5.25 nM), PI3K delta (0.75 nM) and PI3K gamma (5 nM). All isoforms supplied by Millennium Protein Science Group.
as §5

pIC50: −log10 of the molar value.

The text below walks through data of US8796268B2, “Heteroaryls and uses thereof” (Millennium Pharmaceuticals, Inc., priority 2010, dated 2014).

T2 sequence (P42338 whole entry): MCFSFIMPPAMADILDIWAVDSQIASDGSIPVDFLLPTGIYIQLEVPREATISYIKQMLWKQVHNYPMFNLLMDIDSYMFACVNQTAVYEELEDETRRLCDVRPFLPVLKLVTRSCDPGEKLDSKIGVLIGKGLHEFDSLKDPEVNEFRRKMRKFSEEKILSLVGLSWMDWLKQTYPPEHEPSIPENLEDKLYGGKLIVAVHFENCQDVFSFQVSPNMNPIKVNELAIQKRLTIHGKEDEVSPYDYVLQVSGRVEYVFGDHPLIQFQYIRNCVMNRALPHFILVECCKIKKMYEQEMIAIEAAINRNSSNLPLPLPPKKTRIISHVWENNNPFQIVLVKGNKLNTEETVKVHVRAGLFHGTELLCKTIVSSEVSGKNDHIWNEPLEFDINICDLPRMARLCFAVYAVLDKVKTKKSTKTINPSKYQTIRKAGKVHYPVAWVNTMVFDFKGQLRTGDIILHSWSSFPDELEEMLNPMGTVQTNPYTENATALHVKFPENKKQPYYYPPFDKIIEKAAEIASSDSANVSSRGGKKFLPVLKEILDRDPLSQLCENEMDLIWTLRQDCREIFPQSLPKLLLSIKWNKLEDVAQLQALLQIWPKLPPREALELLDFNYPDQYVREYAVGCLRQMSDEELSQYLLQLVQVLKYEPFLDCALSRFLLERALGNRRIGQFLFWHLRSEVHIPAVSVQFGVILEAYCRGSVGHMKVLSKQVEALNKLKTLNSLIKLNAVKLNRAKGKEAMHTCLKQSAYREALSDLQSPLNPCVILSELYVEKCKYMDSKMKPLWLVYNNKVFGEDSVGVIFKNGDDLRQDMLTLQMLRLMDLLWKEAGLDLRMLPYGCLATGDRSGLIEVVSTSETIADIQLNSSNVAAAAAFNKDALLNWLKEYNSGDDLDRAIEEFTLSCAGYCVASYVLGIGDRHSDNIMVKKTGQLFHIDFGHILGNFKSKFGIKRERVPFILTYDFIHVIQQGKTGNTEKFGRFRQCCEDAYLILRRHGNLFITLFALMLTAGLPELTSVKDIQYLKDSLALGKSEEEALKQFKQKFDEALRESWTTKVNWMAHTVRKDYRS
T2 sequence (P27986 whole entry partner): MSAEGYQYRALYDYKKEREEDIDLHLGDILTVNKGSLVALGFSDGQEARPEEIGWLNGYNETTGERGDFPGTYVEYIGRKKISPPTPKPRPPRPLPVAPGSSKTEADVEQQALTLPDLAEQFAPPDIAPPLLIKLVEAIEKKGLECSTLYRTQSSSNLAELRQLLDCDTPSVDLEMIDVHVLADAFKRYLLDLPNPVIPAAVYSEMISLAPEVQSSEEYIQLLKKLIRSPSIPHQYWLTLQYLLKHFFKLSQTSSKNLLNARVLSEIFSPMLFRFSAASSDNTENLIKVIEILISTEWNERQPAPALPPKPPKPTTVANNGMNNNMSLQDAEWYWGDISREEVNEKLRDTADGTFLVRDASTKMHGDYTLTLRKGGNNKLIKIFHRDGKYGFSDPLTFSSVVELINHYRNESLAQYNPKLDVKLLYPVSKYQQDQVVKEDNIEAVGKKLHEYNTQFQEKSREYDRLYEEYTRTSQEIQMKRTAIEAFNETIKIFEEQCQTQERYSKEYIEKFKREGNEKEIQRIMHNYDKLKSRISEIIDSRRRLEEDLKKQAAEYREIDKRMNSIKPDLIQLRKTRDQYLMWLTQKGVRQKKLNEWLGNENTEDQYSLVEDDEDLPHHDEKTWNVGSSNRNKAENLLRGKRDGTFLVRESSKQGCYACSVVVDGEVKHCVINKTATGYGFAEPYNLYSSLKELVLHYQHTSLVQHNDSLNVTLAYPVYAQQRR
T1 sequence (P42336 whole entry): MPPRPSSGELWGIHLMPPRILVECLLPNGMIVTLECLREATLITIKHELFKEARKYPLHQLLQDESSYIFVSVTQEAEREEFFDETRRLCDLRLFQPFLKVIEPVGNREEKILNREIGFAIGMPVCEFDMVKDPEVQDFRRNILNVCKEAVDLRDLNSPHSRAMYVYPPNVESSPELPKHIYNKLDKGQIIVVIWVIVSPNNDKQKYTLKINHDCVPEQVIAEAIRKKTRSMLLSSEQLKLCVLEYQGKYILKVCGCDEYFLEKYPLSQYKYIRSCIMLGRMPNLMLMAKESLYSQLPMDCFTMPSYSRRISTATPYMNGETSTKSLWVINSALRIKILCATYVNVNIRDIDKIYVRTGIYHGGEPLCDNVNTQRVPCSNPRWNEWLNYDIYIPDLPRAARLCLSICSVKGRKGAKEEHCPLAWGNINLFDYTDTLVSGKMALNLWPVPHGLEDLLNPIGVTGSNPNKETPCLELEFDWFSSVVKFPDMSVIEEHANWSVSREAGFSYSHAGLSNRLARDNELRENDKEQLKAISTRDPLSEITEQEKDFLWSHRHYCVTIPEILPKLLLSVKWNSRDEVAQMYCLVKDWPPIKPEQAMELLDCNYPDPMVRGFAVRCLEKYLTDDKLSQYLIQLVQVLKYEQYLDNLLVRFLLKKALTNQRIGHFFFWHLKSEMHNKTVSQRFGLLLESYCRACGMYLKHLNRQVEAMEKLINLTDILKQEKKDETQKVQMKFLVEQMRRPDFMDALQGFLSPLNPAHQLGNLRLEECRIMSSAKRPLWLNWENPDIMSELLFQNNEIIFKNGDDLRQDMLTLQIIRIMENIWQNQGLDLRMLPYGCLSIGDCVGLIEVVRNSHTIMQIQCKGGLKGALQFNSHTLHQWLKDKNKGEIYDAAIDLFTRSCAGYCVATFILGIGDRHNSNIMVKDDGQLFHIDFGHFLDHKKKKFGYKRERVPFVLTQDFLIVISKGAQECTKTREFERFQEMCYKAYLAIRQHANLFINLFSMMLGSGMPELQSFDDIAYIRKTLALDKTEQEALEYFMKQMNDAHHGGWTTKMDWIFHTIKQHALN
T1 sequence (P27986 whole entry partner): as the sequence (P27986 whole entry partner) above

A word on the pIC50: it is the IC50 on a negative log10 scale, so that one unit is a factor of ten. In the case of `CN(C)[C@@H](c1ccc(Cl)cc1)c1cc(-c2ccncc2)sc1-c1nnc[nH]1` [Compound 65], the pIC50 on Human PI3K alpha is below 6.00; on Human PI3K beta it was above 7.00.
Taken in the same sequence, the figures for `OCCNc1cc(-c2cc(C(O)c3ccc(Cl)cc3)c(-c3nnc[nH]3)s2)ccn1` (stereo not drawn) [Compound 49, 2-({4-[4-[(4-chlorophenyl)(hydroxy)methyl]-5-(4H-1,2,4-triazol-3-yl)-2-thienyl]pyridin-2-yl}amino)ethanol] were below 6.00 and below 6.00.
In the same order, the values of `CC(=O)Nc1cc(-c2nc(Cc3ccccc3)c(-c3ncc[nH]3)s2)ccn1` [Compound 2, N-{4-[4-benzyl-5-(1H-imidazol-2-yl)-1,3-thiazol-2-yl]pyridin-2-yl}acetamide] are below 6.00 and below 6.00.
In the same order, the values of `N#Cc1c(-c2ccnc(N)c2)sc(-c2nnc[nH]2)c1Cc1ccc(Cl)cc1` [Compound 12, 2-(2-aminopyridin-4-yl)-4-(4-chlorobenzyl)-5-(4H-1,2,4-triazol-3-yl)thiophene-3-carbonitrile] are below 6.00 and 6.00 to 7.00.
Take `O[C@H](c1ccc(Cl)cc1)c1cc(-c2ccnc(F)c2)sc1-c1nnc[nH]1` [Compound 45]: the values for the pIC50 on Human PI3K alpha and at Human PI3K beta were below 6.00 and above 7.00, respectively.
With `Cc1cc(-c2cc([C@@H](O)c3ccc(Cl)cc3)c(-c3nnc[nH]3)s2)ccn1` (single isomer, unassigned) [Compound 69], the pIC50 on Human PI3K alpha was below 6.00; on Human PI3K beta, 6.00 to 7.00.
`Cc1cc(-c2cc([C@H](O)c3ccc(Cl)cc3)c(-c3nnc[nH]3)s2)ccn1` [Compound 43]: the pIC50 at Human PI3K alpha was below 6.00; on Human PI3K beta, above 7.00.
In the same order, the values of `Clc1ccc(Cc2nc(-c3ccnc(Cl)c3)sc2-c2nnc[nH]2)cc1` [Compound 47, 4-(4-chlorobenzyl)-2-(2-chloropyridin-4-yl)-5-(4H-1,2,4-triazol-3-yl)thiazole] are below 6.00 and 6.00 to 7.00.
As to `O=C1CCc2c(-c3cc(C(O)c4ccc(Cl)cc4)c(-c4nnc[nH]4)s3)ccnc2N1` (stereo not drawn) [Compound 64], the pIC50 at Human PI3K alpha and at Human PI3K beta was 6.00 to 7.00 throughout.
For the compound `O[C@H](c1ccc(Cl)cc1)c1cc(-c2ccnc(Cl)c2)sc1-c1nnc[nH]1` [Compound 30], the figures for the pIC50 on Human PI3K alpha and at Human PI3K beta were 6.00 to 7.00 and above 7.00, respectively.
In the same order, the values of `CN(C)[C@H](c1ccc(Cl)cc1)c1cc(-c2ccncc2)sc1-c1nnc[nH]1` [Compound 44] are below 6.00 and above 7.00.
Turning to `O[C@@H](c1ccc(Cl)cc1)c1cc(-c2ccnc(F)c2)sc1-c1nnc[nH]1` [Compound 26], the pIC50 on Human PI3K alpha is below 6.00; at Human PI3K beta, 6.00 to 7.00.
Taken in the same sequence, the figures for `OC(c1ccc(Cl)cc1)c1cc(-c2ccnc(F)c2)sc1-c1nnc[nH]1` (stereo not drawn) [Compound 21, (4-chlorophenyl)[5-(2-fluoropyridin-4-yl)-2-(4H-1,2,4-triazol-3-yl)-3-thienyl]methanol] were below 6.00 and above 7.00.
Regarding `Cc1noc(C)c1-c1nc(Cc2ccc(Cl)cc2)c(-c2nnc[nH]2)s1` [Compound 46], the pIC50 on Human PI3K alpha is below 6.00; at Human PI3K beta it was 6.00 to 7.00.
In the case of `Nc1cc(-c2cc(C(O)c3ccc(Cl)cc3)c(-c3nnc[nH]3)s2)ccn1` (stereo not drawn) [Compound 75], the figures for the pIC50 at Human PI3K alpha and at Human PI3K beta were below 6.00 and above 7.00, respectively.
Taken in the same sequence, the figures for `COc1ccc(C(O)c2cc(-c3ccncc3)sc2-c2nnc[nH]2)cc1` (stereo not drawn) [Compound 85, (4-methoxyphenyl)[5-pyridin-4-yl-2-(4H-1,2,4-triazol-3-yl)-3-thienyl]methanol] were below 6.00 and above 7.00.
In the same order, the values of `Fc1cnccc1-c1nc(Cc2ccc(Cl)cc2)c(-c2nc[nH]n2)s1` [Compound 78] are below 6.00 and below 6.00.
Taken in the same sequence, the figures for `CC(=O)Nc1cc(-c2nc(C(O)c3ccc(Cl)cc3)c(-c3ncc[nH]3)s2)ccn1` (stereo not drawn) [Compound 60, N-{4-[4-[(4-chlorophenyl)(hydroxy)methyl]-5-(1H-imidazol-2-yl)-1,3-thiazol-2-yl]pyridin-2-yl}acetamide] were below 6.00 and 6.00 to 7.00.
Turning to `Cc1nn2ccc(CN(CCN)Cc3ccccc3)cc2c1-c1nc(Cc2ccc(Cl)cc2)c(-c2nnc[nH]2)s1` [Compound 83], the pIC50 on Human PI3K alpha and at Human PI3K beta was 6.00 to 7.00 throughout.
Consider `Cc1nn2ccc(CNC(=O)c3cnccn3)cc2c1-c1nc(Cc2ccc(Cl)cc2)c(-c2nnc[nH]2)s1` [Compound 50, N-({3-[4-(4-chlorobenzyl)-5-(4H-1,2,4-triazol-3-yl)-1,3-thiazol-2-yl]-2-methylpyrazolo[1,5-a]pyridin-5-yl}methyl)pyrazine-2-carboxamide], for which the pIC50 at Human PI3K alpha and at Human PI3K beta was above 7.00 throughout.
In the case of `CC(=O)Nc1cc(-c2sc(-c3nnc[nH]3)c(Cc3ccc(Cl)cc3)c2C#N)ccn1` [Compound 71, N-{4-[4-(4-chlorobenzyl)-3-cyano-5-(4H-1,2,4-triazol-3-yl)-2-thienyl]pyridin-2-yl}acetamide], the pIC50 on Human PI3K alpha and at Human PI3K beta was 6.00 to 7.00 in each case.
With `CC(=O)Nc1cc(-c2cc(C(c3ccc(Cl)cc3)N3CCC3)c(-c3nnc[nH]3)s2)ccn1` (stereo not drawn) [Compound 90], the pIC50 on Human PI3K alpha was 6.00 to 7.00; on Human PI3K beta, above 7.00.
In the same order, the values of `O[C@@H](c1ccc(Cl)cc1)c1nc(-c2ccncc2)sc1-c1nnc[nH]1` (single isomer, unassigned) [Compound 70, (4-chlorophenyl)[2-pyridin-4-yl-5-(1H-1,2,4-triazol-3-yl)-1,3-thiazol-4-yl]methanol] are below 6.00 and 6.00 to 7.00.
In the same order, the values of `Cc1nn2ccc(CNCCCN)cc2c1-c1nc(Cc2ccc(Cl)cc2)c(-c2nnc[nH]2)s1` [Compound 38] are 6.00 to 7.00 and 6.00 to 7.00.
The inhibition is the change of the read-out against control, counted positive when it falls. Take `CC(=O)Nc1cc(-c2cc(C(O)(c3ccc(Cl)cc3)C3CCN(C)CC3)c(-c3nnc[nH]3)s2)ccn1` (stereo not drawn) [Compound 237, N-(4-{4-[(4-chlorophenyl)(hydroxy)(1-methylpiperidin-4-yl)methyl]-5-(4H-1,2,4-triazol-3-yl)-2-thienyl}pyridin-2-yl)acetamide]: the inhibition at 1.1 µM on Human PI3K alpha (concentration not given, b1387 states 1.1 μM for PI3K α and β, read-out: p110 alpha Percent Inhibition) turned out to be 61%; on Human PI3K beta (concentration not given, b1387 states 1.1 μM for PI3K α and β, read-out: p110 beta Percent Inhibition) it was 89%.
In the case of `OC(c1ccc(Cl)cc1)c1cc(-c2ccnc(Cl)c2)sc1-c1nnc[nH]1` (stereo not drawn) [Compound 14], the pIC50 at Human PI3K alpha is 6.00 to 7.00; on Human PI3K beta it was above 7.00.
On to `CC(=O)Nc1cc(-c2cc(C(O)c3ccc(Cl)cc3)c(-c3nnc[nH]3)s2)ccn1` (stereo not drawn) [Compound 41], for which the pIC50 at Human PI3K alpha and at Human PI3K beta was above 7.00 in each case.
`Fc1cc(-c2nc(Cc3ccc(Cl)cc3)c(-c3nnc[nH]3)s2)ccn1` [Compound 37]: the pIC50 at Human PI3K alpha is below 6.00; on Human PI3K beta, 6.00 to 7.00.
Taken in the same sequence, the figures for `Clc1ccc(Cc2nc(-c3ccncc3)sc2-c2cnc[nH]2)cc1` [Compound 66, 4-(4-chlorobenzyl)-5-(1H-imidazol-5-yl)-2-(pyridin-4-yl)thiazole] were below 6.00 and above 7.00.
Regarding `O[C@H](c1ccc(Cl)cc1)c1cc(-c2ccnnc2)sc1-c1nnc[nH]1` [Compound 59], the results for the pIC50 on Human PI3K alpha and at Human PI3K beta were below 6.00 and above 7.00, respectively.
